The values that follow come from PubChem BioAssay (NCI).

Values joined by “and” are separate entries in the source; they are usually repeats but may differ in a detail not shown here. Equal entries are not always repeated.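 Values below derive from 48-hour exposures of cells grown in 96-well plates, with endpoints linearly interpolated between the two concentrations bracketing the appropriate inhibition level. GI50 is the concentration that inhibits growth by half. At the TGI there is no net growth.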 Some results are limits rather than exact numbers.

Holding throughout (assay): inhibition of tumour cell growth, NCI panel, 48 h
The subject of assay [1] is BT-549 breast.
The test system of assay [2] is CAKI-1 renal.
The subject of assay [3] is IGROV1 ovarian.
For assay [4], the system named is MALME-3M melanoma.
Assay [5] deals with MCF7 breast.
Assay [6] concerns NCI-H522 lung.
In assay [7] the test system is SN12C renal.
For assay [8], the system named is SNB-75 CNS.
For assay [9], the system named is U251 CNS.
The subject of assay [10] is COLO 205 colon.

In the case of `Cc1[nH]nc2ncc(C(=O)N3CCC[C@H]3c3ccc(Cl)cc3)cc12`, the GI50 was 50.6 µM in [1]; more than 100 µM in assay [2]; 66.1 µM in [3]; more than 100 µM in assay [4]; 41.6 µM in assay [5]; more than 100 µM in assay [6]. Further, the GI50 was more than 100 µM in [7], 84.4 µM in assay [8] and more than 100 µM in assay [9]. Besides, the TGI in [1], in assay [2], in assay [3], in assay [4], in assay [5] and in assay [6] was more than 100 µM throughout. The TGI in assay [7], in assay [8] and in assay [9] was more than 100 µM each time.

`COc1ccc2nc3cccc([N+](=O)[O-])c3c(NC(C)CN(C)C)c2c1` (configuration not stated): the GI50 is 2.86 µM in assay [1]; 2.52 µM in assay [2]; 1.84 µM in assay [10]; 1.67 µM in [3]; 1.17 µM in assay [5]; 0.69 µM in assay [6]. Moreover, the GI50 is 2.67 µM in [7], 2.25 µM in assay [8] and 0.371 µM in assay [9]. The TGI was found to be 6.74 µM in [1]; 7.19 µM in [2]; 6.89 µM in assay [10]; 5.54 µM in [3]; 4.36 µM in assay [5]; 2.18 µM in assay [6]. Besides, the TGI came out at 9.6 µM in assay [7], 5.55 µM in [8] and 2.17 µM in assay [9].

For the compound `O=C(c1ccccc1)c1nc2ccc(C(F)(F)F)cc2nc1N1CCN(c2ccccc2)CC1`, the GI50 in assay [1] was 32 µM; in assay [2], 26.2 µM; in assay [10] it was 18.9 µM; in assay [3], 43.9 µM; in assay [4], 48.2 µM; in [5], 48.2 µM. Besides, the values for the GI50 in [6], in assay [7] and in assay [9] were 34.6 µM, 36.2 µM and 60.9 µM, respectively. Moreover, the TGI in assay [1] was 84.5 µM; in assay [2], 74.7 µM; in assay [10] it was 51.9 µM; in assay [3], more than 100 µM; in assay [4], more than 100 µM; in assay [5] it was more than 100 µM. Further, the TGI in [6] was 91.3 µM; in [7], more than 100 µM; in [9] it was more than 100 µM.

Regarding `COc1cc(CCC(=O)NC[C@@H](O)c2ccccc2)ccc1O`, the GI50 in assay [1], in assay [2], in assay [3], in assay [4], in assay [5] and in [6] was more than 100 µM each time. Also, the GI50 in assay [7], in [8] and in assay [9] was more than 100 µM each time. Besides, the TGI in assay [1], in assay [2], in assay [3], in assay [4], in assay [5] and in assay [6] was more than 100 µM throughout. Also, the TGI in [7], in assay [8] and in [9] was more than 100 µM each time.

On to `O=C1CC(CC(OCc2ccccc2)C(OCc2ccccc2)C(COCc2ccccc2)OCc2ccccc2)CC(=O)N1` (configuration not stated), for which the GI50 in assay [1] is > 100 µM and 12.6 µM; in assay [3], > 100 µM and 17.2 µM; in assay [4] it was > 100 µM and 15.5 µM; in assay [7] it was > 100 µM and 18.6 µM. Moreover, the TGI in assay [1] was > 100 µM and 25.3 µM; in [3], > 100 µM and 33.7 µM; in assay [4], > 100 µM and 32.4 µM; in [5], > 100 µM and 31.4 µM; in assay [7] it was > 100 µM and 54.1 µM; in assay [8] it was > 100 µM and 75.2 µM. Besides, the TGI in [9] is > 100 µM and 18.1 µM.

With `CN1CCN(CCCN2c3ccccc3Sc3ccc(Cl)cc32)CC1`, the GI50 in assay [1] was 6.56 µM; in assay [10], 4.37 µM and 36.6 µM; in assay [4], 6.01 µM and 39.7 µM; in assay [5] it was 5.79 µM and 47.1 µM; in assay [6], 42 µM; in assay [7], 5.83 µM and 56.8 µM. Besides, the TGI in [1] was 13.4 µM; in assay [2], 9.02 µM and 74.2 µM; in assay [10] it was 11.6 µM and 51.1 µM; in assay [3], 11.7 µM and 67.3 µM; in assay [4] it was 14.3 µM and 55.9 µM; in assay [5], 14 µM and 63 µM. Further, the TGI is 56.8 µM in assay [6]; 12.8 µM in assay [7]; 11.8 µM and 87.3 µM in [9].

In the case of `COc1ccc(-c2[nH]nc(N)c2-c2cc(OC)c(OC)c(OC)c2)cc1`, the GI50 in [1] was 0.0873 µM; in assay [2], 0.0506 µM; in [10], 0.0331 µM; in assay [3] it was 0.0591 µM; in assay [4] it was 0.0337 µM; in assay [5], 0.03 µM. The GI50 in assay [6] is less than 0.0133 µM; in [7], 0.0716 µM; in assay [9], 0.0424 µM. For the same compound, the TGI is 4.29 µM in assay [1]; 47.3 µM in assay [2]; 0.16 µM in assay [10]; 20.4 µM in assay [3]; more than 100 µM in [4]; more than 100 µM in [5]. Besides, the results for the TGI in assay [6], in [7] and in assay [9] were 0.62 µM, more than 57.4 µM and more than 100 µM, respectively.

For `Nc1nn(C(=O)Nc2c(F)cccc2F)c2ccccc12`, the GI50 in [1] is 28.8 µM; in assay [2] it was 45.3 µM; in assay [10], more than 100 µM; in assay [3], 7.7 µM; in assay [4], more than 100 µM; in [5] it was 60 µM. Further, the GI50 was 55.1 µM in assay [6], more than 100 µM in assay [7] and 96.1 µM in assay [9]. For the same compound, the TGI in assay [1], in assay [2], in assay [10], in assay [3], in assay [4] and in assay [5] was more than 100 µM each time. Also, the TGI in [6], in assay [7] and in [9] was more than 100 µM in each case.

As for `COc1cc2c(c(OC)c1OC)-c1c(c3ccc([N+](=O)[O-])cc3c(=O)n1CCCN)C2=O`, the GI50 in assay [1] was 14.4 µM; in [2] it was 0.895 µM; in [10], 8.72 µM; in assay [3], 8.7 µM; in assay [4], 0.952 µM; in assay [5], 14.2 µM. Also, the GI50 in [6] was 9.63 µM; in [7], 4 µM; in assay [9], 0.92 µM. The TGI in [1] is 46.9 µM; in assay [2] it was 10.9 µM; in [10], more than 50 µM; in assay [3], 17.1 µM; in assay [4], 1.92 µM; in assay [5] it was more than 50 µM. Moreover, the results for the TGI in assay [6], in assay [7] and in assay [9] were 19.1 µM, 11.5 µM and 1.75 µM, respectively.
